According to ChEMBL document CHEMBL1201862, “PubChem BioAssay data set” (2004):
Activity calls are given as the source filed them. Cut-off read from the data, not from the text of the source, for most assays here: actives have a measured IC50 and inactives only a lower limit.

Assays:
[1] = target: T1, Sentrin-specific protease 7 (Homo sapiens, UniProt Q9BQF6); experiment: SENP7 protease inhibitors, SAR follow-up, biochemical, luminescence (AID 504497); format: functional
T1 sequence (Q9BQF6 whole entry): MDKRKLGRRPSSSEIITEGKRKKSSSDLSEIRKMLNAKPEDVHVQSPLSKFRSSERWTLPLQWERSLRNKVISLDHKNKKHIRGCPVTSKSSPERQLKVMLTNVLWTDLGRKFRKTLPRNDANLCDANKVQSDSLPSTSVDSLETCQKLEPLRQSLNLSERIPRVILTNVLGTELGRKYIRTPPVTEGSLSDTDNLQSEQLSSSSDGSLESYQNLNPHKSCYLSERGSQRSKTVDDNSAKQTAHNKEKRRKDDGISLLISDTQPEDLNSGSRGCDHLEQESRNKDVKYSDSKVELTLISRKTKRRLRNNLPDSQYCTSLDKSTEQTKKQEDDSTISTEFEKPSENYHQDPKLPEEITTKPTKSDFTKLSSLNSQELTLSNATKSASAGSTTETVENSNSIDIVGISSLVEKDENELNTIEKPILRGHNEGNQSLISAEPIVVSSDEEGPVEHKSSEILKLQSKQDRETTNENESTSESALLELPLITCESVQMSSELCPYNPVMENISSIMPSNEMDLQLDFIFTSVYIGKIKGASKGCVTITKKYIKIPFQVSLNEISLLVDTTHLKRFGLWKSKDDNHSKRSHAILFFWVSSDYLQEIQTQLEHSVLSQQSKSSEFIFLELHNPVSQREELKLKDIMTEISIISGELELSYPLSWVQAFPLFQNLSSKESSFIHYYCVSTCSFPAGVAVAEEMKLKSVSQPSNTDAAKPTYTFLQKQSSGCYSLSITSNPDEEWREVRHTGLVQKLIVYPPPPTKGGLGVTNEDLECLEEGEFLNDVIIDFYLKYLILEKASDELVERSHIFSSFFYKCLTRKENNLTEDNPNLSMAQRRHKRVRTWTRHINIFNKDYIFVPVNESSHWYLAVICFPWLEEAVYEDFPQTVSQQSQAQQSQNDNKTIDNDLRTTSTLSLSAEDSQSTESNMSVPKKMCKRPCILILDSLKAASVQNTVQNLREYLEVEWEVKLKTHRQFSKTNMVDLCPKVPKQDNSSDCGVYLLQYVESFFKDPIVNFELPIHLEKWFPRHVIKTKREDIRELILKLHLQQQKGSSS

[2] = target: T1, Sentrin-specific protease 7; experiment: SENP7 protease inhibitors, SAR follow-up, biochemical, luminescence, set 2 (AID 588600); format: functional
Caspase-3 [3] = target: T2, Caspase-3 (Homo sapiens, UniProt P42574); experiment: caspase-3 inhibitors as off-family protease, SAR follow-up, selectivity assay for SENP protease inhibitor project, biochemical, luminescence, set 2 (AID 588599); format: functional
T2 sequence (P42574 whole entry): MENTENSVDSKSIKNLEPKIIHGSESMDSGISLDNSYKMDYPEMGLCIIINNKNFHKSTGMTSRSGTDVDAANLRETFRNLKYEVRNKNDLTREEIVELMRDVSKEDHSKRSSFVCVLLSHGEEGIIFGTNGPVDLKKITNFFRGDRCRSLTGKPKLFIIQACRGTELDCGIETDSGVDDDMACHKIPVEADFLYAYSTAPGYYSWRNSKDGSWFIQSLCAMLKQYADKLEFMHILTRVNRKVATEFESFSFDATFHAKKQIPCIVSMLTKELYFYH

[4] = target: T3, Sentrin-specific protease 6 (Homo sapiens, UniProt Q9GZR1); experiment: SAR Analysis of small molecule inhibitors of Sentrin-specific protease 6 (SENP6) using a Luminescent assay. [Related pubchem assays (depositor defined):AID2582, AID2599]; format: functional
T3 sequence (Q9GZR1 whole entry): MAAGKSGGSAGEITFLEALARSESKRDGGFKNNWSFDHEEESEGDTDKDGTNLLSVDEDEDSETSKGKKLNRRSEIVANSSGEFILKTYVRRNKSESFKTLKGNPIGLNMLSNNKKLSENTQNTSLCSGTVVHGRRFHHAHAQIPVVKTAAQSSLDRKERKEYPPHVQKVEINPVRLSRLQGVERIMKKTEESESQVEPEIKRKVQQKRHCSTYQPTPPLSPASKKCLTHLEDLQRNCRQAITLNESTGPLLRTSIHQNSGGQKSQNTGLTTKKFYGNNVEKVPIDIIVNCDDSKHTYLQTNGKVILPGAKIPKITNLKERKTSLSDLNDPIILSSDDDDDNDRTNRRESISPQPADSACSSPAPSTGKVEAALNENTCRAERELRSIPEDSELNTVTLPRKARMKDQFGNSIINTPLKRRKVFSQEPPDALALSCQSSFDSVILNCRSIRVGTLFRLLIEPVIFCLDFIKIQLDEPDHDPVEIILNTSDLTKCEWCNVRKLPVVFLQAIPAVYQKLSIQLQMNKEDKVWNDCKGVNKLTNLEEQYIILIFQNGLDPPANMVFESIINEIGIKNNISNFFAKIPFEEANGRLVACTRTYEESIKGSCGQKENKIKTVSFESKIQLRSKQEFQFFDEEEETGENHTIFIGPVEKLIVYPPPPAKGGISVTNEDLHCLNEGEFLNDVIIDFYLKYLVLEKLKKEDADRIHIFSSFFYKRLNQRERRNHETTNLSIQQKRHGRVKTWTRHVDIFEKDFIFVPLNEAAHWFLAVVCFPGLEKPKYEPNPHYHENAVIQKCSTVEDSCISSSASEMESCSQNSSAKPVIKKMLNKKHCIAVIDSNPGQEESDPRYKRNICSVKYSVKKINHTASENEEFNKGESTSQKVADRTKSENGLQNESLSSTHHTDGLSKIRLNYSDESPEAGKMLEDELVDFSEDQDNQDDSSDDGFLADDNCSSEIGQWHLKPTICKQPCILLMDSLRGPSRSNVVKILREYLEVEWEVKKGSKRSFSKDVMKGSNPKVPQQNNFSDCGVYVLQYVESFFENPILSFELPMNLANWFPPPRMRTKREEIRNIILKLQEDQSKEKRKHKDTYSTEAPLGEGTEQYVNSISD

[5] = target: T4, Sentrin-specific protease 8 (Homo sapiens, UniProt Q96LD8); experiment: SENP8 protease inhibitors, SAR follow-up, biochemical, luminescence, set 2 (AID 588601); format: functional
T4 sequence (Q96LD8 whole entry): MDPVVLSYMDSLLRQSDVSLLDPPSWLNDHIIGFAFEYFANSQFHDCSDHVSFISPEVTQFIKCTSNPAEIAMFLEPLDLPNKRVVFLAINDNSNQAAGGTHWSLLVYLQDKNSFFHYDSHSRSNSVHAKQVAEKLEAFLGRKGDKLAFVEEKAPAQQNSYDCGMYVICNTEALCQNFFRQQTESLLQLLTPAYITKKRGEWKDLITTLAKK

[6] = target: T4, Sentrin-specific protease 8; experiment: SENP8 protease inhibitors, SAR follow-up, biochemical, luminescence (AID 504501); format: functional
Caspase-3 [7] = target: T2, Caspase-3; experiment: SAR Analysis of small molecule inhibitors of Sentrin-specific proteases (SENPs) using a Caspase-3 Selectivity assay. [Related pubchem assays (depositor defined):AID2540, AID2599, AID434973, AID489001]; format: functional
[8] = target: T3, Sentrin-specific protease 6; experiment: SENP6 protease inhibitors, SAR follow-up, biochemical, luminescence, set 2 (AID 588598); format: functional
HEK293 [9] = experiment: optical interference in Abeta FP readout, dose response, artefact control for IDE activator project, biochemical, fluorescence polarization (AID 588442); format: functional, cell-based; settings: Homo sapiens
Insulin-degrading enzyme [10] = target: T5, Insulin-degrading enzyme (Homo sapiens, UniProt P14735); experiment: activators of recombinant IDE enzyme, dose response, counter-screen for IDE activator project, biochemical, fluorescence polarization (AID 588681)
T5 sequence (P14735 whole entry): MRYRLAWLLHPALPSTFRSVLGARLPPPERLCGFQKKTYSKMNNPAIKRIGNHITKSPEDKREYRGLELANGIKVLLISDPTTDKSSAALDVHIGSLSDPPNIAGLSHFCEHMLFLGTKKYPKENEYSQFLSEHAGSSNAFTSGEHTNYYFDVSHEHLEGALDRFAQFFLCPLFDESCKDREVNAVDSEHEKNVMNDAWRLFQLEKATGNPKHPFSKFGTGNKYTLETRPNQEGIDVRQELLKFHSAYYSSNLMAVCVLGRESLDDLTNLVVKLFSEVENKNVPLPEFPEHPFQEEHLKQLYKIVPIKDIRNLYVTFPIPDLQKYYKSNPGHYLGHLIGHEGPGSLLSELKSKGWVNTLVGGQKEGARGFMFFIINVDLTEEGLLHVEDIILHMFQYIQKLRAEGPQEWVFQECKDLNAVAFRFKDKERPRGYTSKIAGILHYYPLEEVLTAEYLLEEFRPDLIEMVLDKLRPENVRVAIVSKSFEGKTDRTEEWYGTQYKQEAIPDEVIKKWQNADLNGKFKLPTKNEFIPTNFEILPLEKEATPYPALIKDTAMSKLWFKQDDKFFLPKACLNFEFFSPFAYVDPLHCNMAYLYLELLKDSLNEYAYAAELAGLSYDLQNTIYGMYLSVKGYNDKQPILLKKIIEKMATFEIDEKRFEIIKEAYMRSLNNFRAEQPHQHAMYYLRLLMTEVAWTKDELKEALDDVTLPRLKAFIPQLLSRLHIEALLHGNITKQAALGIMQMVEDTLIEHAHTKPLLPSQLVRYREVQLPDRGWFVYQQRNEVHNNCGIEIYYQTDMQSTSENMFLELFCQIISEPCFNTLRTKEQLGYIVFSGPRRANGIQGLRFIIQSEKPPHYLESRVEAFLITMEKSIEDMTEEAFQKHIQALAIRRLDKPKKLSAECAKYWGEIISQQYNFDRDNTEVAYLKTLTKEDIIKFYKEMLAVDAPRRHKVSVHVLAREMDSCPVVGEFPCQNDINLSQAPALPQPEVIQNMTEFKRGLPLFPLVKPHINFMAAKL

HEK293 [11] = experiment: HEK cell cytotoxicity by LDH release, dose response, cytotoxicity control for IDE activator project, fluorescence, HEK cells (AID 588440); format: functional, cell-based; settings: Homo sapiens;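 note: cytotoxicity by LDH release measuring loss of membrane integrity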
Insulin-degrading enzyme [12] = target: T5, Insulin-degrading enzyme; experiment: activators of endogenous IDE in HEK cells, dose response, cell-based, fluorescence polarization (AID 588439); format: functional

Structure (SMILES)	IC50 [1]	IC50 [2]	IC50 (Caspase-3 [3])	IC50 [4]	IC50 [5]	IC50 [6]	IC50 (Caspase-3 [7])	IC50 [8]	EC50 (HEK293 [9])	EC50 (Insulin-degrading enzyme [10])	IC50 (HEK293 [11])	EC50 (Insulin-degrading enzyme [12])
Oc1ccccc1-c1nc(/C=C/c2ccccc2Cl)no1	1000 nM (active)	1360 nM (active)	1440 nM (active)	1200 nM (active)	1290 nM (active)	1200 nM (active)	1200 nM (active)	1350 nM (active)				
CC(C)CN1CCC(=O)N([C@H](CO)c2ccccc2)CC1									> 54700 nM (inactive)	> 54700 nM (inactive)	> 89300 nM (inactive)	> 54700 nM (inactive)
